From the CheMixHub viscosity set

Assay: xn = mol fraction of the nth substance listed

c1ccccc1 + CCCCCC
Conditions	viscosity [mPa·s]
293.15 K, 101.33 kPa, x1 = 0.1713	0.327
293.15 K, 101.33 kPa, x1 = 0.3148	0.345
293.15 K, 101.33 kPa, x1 = 0.4632	0.371
293.15 K, 101.33 kPa, x1 = 0.5799	0.406
293.15 K, 101.33 kPa, x1 = 0.7266	0.454
293.15 K, 101.33 kPa, x1 = 0.8082	0.494
293.15 K, 101.33 kPa, x1 = 0.9173	0.57
298 K, 101.33 kPa, x1 = 0.1026	0.3104
298 K, 101.33 kPa, x1 = 0.2013	0.3191
298 K, 101.33 kPa, x1 = 0.2817	0.3276
298 K, 101.33 kPa, x1 = 0.4385	0.3516
298 K, 101.33 kPa, x1 = 0.5967	0.3871
298 K, 101.33 kPa, x1 = 0.7149	0.4256
298 K, 101.33 kPa, x1 = 0.794	0.46
298 K, 101.33 kPa, x1 = 0.8993	0.5212
298.1 K, 101 kPa, x2 = 0.2	0.469
298.1 K, 101 kPa, x2 = 0.4	0.4
298.1 K, 101 kPa, x2 = 0.5	0.377
298.1 K, 101 kPa, x2 = 0.6	0.359
298.1 K, 101 kPa, x2 = 0.8	0.334
298.15 K, 101 kPa, x2 = 0.07	0.556
298.15 K, 101 kPa, x2 = 0.182	0.5
298.15 K, 101 kPa, x2 = 0.265	0.489
298.15 K, 101 kPa, x2 = 0.405	0.429
298.15 K, 101 kPa, x2 = 0.563	0.4
298.15 K, 101.33 kPa, x1 = 0.0651	0.2983
298.15 K, 101.33 kPa, x1 = 0.1218	0.3034
298.15 K, 101.33 kPa, x1 = 0.1281	0.3134
298.15 K, 101.33 kPa, x1 = 0.2665	0.327
298.15 K, 101.33 kPa, x1 = 0.2763	0.3184
298.15 K, 101.33 kPa, x1 = 0.405	0.3471
298.15 K, 101.33 kPa, x1 = 0.4144	0.339
298.15 K, 101.33 kPa, x1 = 0.5704	0.3822
298.15 K, 101.33 kPa, x1 = 0.5822	0.3759
298.15 K, 101.33 kPa, x1 = 0.7092	0.4165
298.15 K, 101.33 kPa, x1 = 0.7216	0.4254
298.15 K, 101.33 kPa, x1 = 0.821	0.4673
298.15 K, 101.33 kPa, x1 = 0.8811	0.5139
298.15 K, 101.33 kPa, x1 = 0.9055	0.5208
298.15 K, 101.33 kPa, x2 = 0.0488	0.55
298.15 K, 101.33 kPa, x2 = 0.05393	0.5662
298.15 K, 101.33 kPa, x2 = 0.1122	0.5225
298.15 K, 101.33 kPa, x2 = 0.1676	0.466
298.15 K, 101.33 kPa, x2 = 0.2079	0.472
298.15 K, 101.33 kPa, x2 = 0.2486	0.434
298.15 K, 101.33 kPa, x2 = 0.3095	0.4294
298.15 K, 101.33 kPa, x2 = 0.3321	0.397
298.15 K, 101.33 kPa, x2 = 0.3638	0.386
298.15 K, 101.33 kPa, x2 = 0.4168	0.373
298.15 K, 101.33 kPa, x2 = 0.4197	0.3921
298.15 K, 101.33 kPa, x2 = 0.4682	0.358
298.15 K, 101.33 kPa, x2 = 0.5004	0.3712
298.15 K, 101.33 kPa, x2 = 0.5206	0.347
298.15 K, 101.33 kPa, x2 = 0.5934	0.3533
298.15 K, 101.33 kPa, x2 = 0.626	0.328
298.15 K, 101.33 kPa, x2 = 0.6857	0.3394
298.15 K, 101.33 kPa, x2 = 0.7434	0.312
298.15 K, 101.33 kPa, x2 = 0.7913	0.3268
298.15 K, 101.33 kPa, x2 = 0.8753	0.299
298.15 K, 101.33 kPa, x2 = 0.8834	0.3202
298.15 K, 101.33 kPa, x2 = 0.9498	0.294
308.15 K, 101 kPa, x2 = 0.07	0.486
308.15 K, 101 kPa, x2 = 0.182	0.441
308.15 K, 101 kPa, x2 = 0.265	0.415
308.15 K, 101 kPa, x2 = 0.405	0.384
308.15 K, 101 kPa, x2 = 0.563	0.361
323.15 K, 101 kPa, x2 = 0.07	0.407
323.15 K, 101 kPa, x2 = 0.182	0.374
323.15 K, 101 kPa, x2 = 0.265	0.356
323.15 K, 101 kPa, x2 = 0.405	0.334
323.15 K, 101 kPa, x2 = 0.563	0.32

O=[N+]([O-])c1ccccc1 + CO
viscosity [mPa·s]
Conditions	298.15 K	303.15 K
101 kPa, x1 = 0.0148	0.5642	–
101 kPa, x2 = 0.0719	1.698	–
101 kPa, x2 = 0.2616	1.416	–
101 kPa, x2 = 0.4788	1.161	–
101 kPa, x2 = 0.5889	1.036	–
101 kPa, x2 = 0.7539	0.8366	–
101 kPa, x2 = 0.8593	0.7113	–
101 kPa, x2 = 0.9296	0.6279	–
101.33 kPa, x1 = 0.0281	0.5789	0.541
101.33 kPa, x1 = 0.0612	0.611	0.5673
101.33 kPa, x1 = 0.1003	0.6507	0.607
101.33 kPa, x1 = 0.1478	0.7156	0.6653
101.33 kPa, x1 = 0.2806	0.8769	0.81
101.33 kPa, x1 = 0.3909	1.006	0.9279
101.33 kPa, x1 = 0.5102	1.156	1.093
101.33 kPa, x1 = 0.5937	–	1.298
101.33 kPa, x1 = 0.8005	1.559	1.485
101.33 kPa, x1 = 0.8978	1.693	1.534

CN(C)C=O + CC#N
Conditions	viscosity [mPa·s]
298.15 K, 101 kPa, x2 = 0.0113	0.794
298.15 K, 101 kPa, x2 = 0.0144	0.792
298.15 K, 101 kPa, x2 = 0.0841	0.761
298.15 K, 101 kPa, x2 = 0.103	0.747
298.15 K, 101 kPa, x2 = 0.1527	0.712
298.15 K, 101 kPa, x2 = 0.2044	0.685
298.15 K, 101 kPa, x2 = 0.2682	0.654
298.15 K, 101 kPa, x2 = 0.3131	0.615
298.15 K, 101 kPa, x2 = 0.3696	0.598
298.15 K, 101 kPa, x2 = 0.3798	0.603
298.15 K, 101 kPa, x2 = 0.4759	0.552
298.15 K, 101 kPa, x2 = 0.5317	0.529
298.15 K, 101 kPa, x2 = 0.5759	0.492
298.15 K, 101 kPa, x2 = 0.6348	0.448
298.15 K, 101 kPa, x2 = 0.6876	0.499
298.15 K, 101 kPa, x2 = 0.743	0.408
298.15 K, 101 kPa, x2 = 0.7906	0.382
298.15 K, 101 kPa, x2 = 0.8453	0.382
298.15 K, 101 kPa, x2 = 0.8954	0.345
298.15 K, 101 kPa, x2 = 0.9485	0.346
298.15 K, 101 kPa, x2 = 0.9723	0.333
303.15 K, 101 kPa, x2 = 0.1176	0.6994
303.15 K, 101 kPa, x2 = 0.2399	0.6372
303.15 K, 101 kPa, x2 = 0.4348	0.5495
303.15 K, 101 kPa, x2 = 0.5933	0.4816
303.15 K, 101 kPa, x2 = 0.7275	0.4283
303.15 K, 101 kPa, x2 = 0.8419	0.3842
303.15 K, 101 kPa, x2 = 0.9418	0.3496
303.15 K, 101.33 kPa, x2 = 0.0953	0.7392
303.15 K, 101.33 kPa, x2 = 0.1981	0.6991
303.15 K, 101.33 kPa, x2 = 0.3038	0.6537
303.15 K, 101.33 kPa, x2 = 0.3988	0.6046
303.15 K, 101.33 kPa, x2 = 0.5	0.5476
303.15 K, 101.33 kPa, x2 = 0.6013	0.494
303.15 K, 101.33 kPa, x2 = 0.6983	0.4471
303.15 K, 101.33 kPa, x2 = 0.8009	0.4023
303.15 K, 101.33 kPa, x2 = 0.8992	0.3607

O=[N+]([O-])c1ccccc1 + CC(C)(C)O
viscosity [mPa·s], 101.33 kPa
Conditions	x1 = 0.0627	x1 = 0.1307	x1 = 0.2059	x1 = 0.2864	x1 = 0.3758	x1 = 0.4746	x1 = 0.5843	x1 = 0.7067	x1 = 0.8442
298.15 K	3.205	2.576	2.256	2.001	1.838	1.711	1.655	1.697	1.681
303.15 K	2.375	2.152	1.896	1.732	1.622	1.506	1.468	1.477	1.538
